Article PMC9551036, “A selective and orally bioavailable VHL-recruiting PROTAC achieves SMARCA2 degradation in vivo” (Nature Communications, 2022)
“And” between values parts separate entries of the source, which are not always exact repeats. Equal values may be shown once. Read-outs that look alike come from different tables or passages of the source.

Target: SMARCA2 (Homo sapiens, UniProt P51531)
Assay: SMARCA2 capillary electrophoresis protein assay in other cell lines (A549, NCI-H1568, HCT116, LU99, HCC-364, HCT-15, HCC4006, SK-N-AS)
Type: cell-based
Set-up: endogenous in cells; host or cells: RKO, NCI-H1568, A549, HCT116, LU99, HCC-364, HCT-15, HCC4006, SK-N-AS
Details: for LogEC50: log10 of concentration in mol/l
Experimental: 130,000–200,000 cells were seeded in 24-well plates and incubated until settled down or overnight. Compounds were dissolved in DMSO and added to cells in indicated concentrations using a digital dispenser following an optional media change. Cells were incubated for 4 or 18 h as indicated. For SMARCA2/4 half-life determination, 150,000 or 200,000 cells were seeded in 24-well plates. The next day, 50 µg/ml cycloheximide (Sigma) was added and cells were incubated for 1–24 h. For SMARCA2/4 re-synthesis measurements, 200,000 cells were seeded in 24-well plates. The next day, 100 nM compound 6 was added for 4 h to degrade SMARCA2/4, and a sample was taken as baseline for normalisation. To allow re-synthesis, a VHL binder (compound 32, 25 or 50 µM) was then added for 3 or 24 h. Medium was removed, cells were washed with PBS and lysed with 80 µl Lysis Buffer (MSD Tris Lysis Buffer (#R60TX-2) + Halt Inhibitor Cocktail (100x) + Benzonase 0.5 µL/ml). Samples were frozen at −80 °C and thawed at room temperature before use. Samples were transferred to a V-bottom plate and insoluble debris was pelleted by centrifugation for 5 min at maximum speed. The supernatant was transferred to a fresh plate. Master Mix and Ladder were prepared according to manufacturer’s instructions for 12–230 kDa Wes Separation Module, 8 × 25 capillary cartridges, Protein Simple #SM-W004 with Anti-Rabbit Detection Module for Wes, Peggy Sue or Sally Sue, Protein Simple #DM-001. 4.8 µl lysate were mixed with 1.2 µl Master Mix to achieve a protein concentration of ~0.5 µg/µl. Antibodies were diluted in Antibody Diluent II (SMARCA2 Sigma #HPA029981 RRID:AB_10602406 1:25–100, SMARCA4 Cell Signalling #49360 clone D1Q7F RRID:AB_2728743 1:15–120 or Abcam #ab110641 clone EPNCIR111A RRID:AB_10861578 1:60, GAPDH Abcam #ab9485 RRID:AB_307275 1:250). Wes plates were prepared and run according to manufacturer’s instructions. Proteins were quantified with accompanying Compass Software. SMARCA2/4 protein levels were normalised to GAPDH. […] Where applicable, curves were fitted using a 4-parametric logistic model.

[1] = SK-N-AS_SM2, four-parameter fit

Chain of SMARCA2 (P51531 whole entry): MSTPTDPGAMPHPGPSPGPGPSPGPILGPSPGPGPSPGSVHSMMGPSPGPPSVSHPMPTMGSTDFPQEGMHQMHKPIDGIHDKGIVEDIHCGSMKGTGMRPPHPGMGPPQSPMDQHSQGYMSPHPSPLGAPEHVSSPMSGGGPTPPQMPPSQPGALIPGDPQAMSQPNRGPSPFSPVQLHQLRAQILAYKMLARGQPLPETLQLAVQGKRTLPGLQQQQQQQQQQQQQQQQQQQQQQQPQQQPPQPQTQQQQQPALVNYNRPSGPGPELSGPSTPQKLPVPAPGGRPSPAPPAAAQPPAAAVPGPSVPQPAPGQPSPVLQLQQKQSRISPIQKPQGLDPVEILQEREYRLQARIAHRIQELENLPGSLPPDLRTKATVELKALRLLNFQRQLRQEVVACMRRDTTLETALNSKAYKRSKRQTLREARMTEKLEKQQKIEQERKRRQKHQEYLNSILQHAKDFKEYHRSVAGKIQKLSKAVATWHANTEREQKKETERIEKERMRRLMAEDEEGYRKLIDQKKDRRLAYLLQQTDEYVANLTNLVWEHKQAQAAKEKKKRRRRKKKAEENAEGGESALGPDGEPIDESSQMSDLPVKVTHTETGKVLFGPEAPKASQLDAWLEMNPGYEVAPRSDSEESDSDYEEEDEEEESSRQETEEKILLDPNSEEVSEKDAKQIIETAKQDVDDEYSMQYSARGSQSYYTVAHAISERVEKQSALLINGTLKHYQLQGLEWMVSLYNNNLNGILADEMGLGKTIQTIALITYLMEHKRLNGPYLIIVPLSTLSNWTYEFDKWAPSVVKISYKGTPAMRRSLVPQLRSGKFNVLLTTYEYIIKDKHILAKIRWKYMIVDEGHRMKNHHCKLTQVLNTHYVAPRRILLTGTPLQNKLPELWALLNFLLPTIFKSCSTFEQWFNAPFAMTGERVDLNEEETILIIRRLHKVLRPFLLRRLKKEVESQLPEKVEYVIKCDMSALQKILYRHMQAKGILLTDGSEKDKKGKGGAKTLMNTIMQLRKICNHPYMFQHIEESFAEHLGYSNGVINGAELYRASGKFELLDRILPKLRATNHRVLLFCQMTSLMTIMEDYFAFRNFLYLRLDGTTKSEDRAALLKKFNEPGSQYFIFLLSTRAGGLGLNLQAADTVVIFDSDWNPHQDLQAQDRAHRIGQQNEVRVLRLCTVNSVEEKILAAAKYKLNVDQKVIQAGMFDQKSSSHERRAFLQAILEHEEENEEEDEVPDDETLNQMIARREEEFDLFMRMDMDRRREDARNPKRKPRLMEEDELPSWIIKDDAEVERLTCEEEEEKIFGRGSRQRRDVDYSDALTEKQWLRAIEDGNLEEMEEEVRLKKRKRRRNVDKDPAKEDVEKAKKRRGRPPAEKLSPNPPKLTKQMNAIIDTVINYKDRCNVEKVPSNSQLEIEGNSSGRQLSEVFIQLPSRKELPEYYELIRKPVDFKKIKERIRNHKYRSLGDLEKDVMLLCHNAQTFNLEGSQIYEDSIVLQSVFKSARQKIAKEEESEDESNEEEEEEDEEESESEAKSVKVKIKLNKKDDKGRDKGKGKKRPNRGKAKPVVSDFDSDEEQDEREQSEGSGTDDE

Cc1ncsc1-c1ccc(C(CCC(C)CCN2CCC(c3ccc4c(c3)n(C3CCCC3)c3nc(=O)c5c(Br)cccc5n43)CC2)NC(=O)C2CC(O)CN2C(=O)C(NC(=O)C2(F)CC2)C(C)(C)C)cc1 (stereo not drawn) [ACBI2]
LogEC50 (HCC-364_SM2): -8.138
DC50 (HCC-364_SM2, protein degradation, four-parameter fit, read-out: EC50 (the source's name)): 7.28 nM
Bottom (% protein remaining, four-parameter fit) (HCT116, SM2): 21.77%
HillSlope (protein remaining) (HCT116, SM2): -1.136
Top (% protein remaining, four-parameter fit) (HCT116, SM2): 121.9%
Bottom (best-fit value, % protein remaining) (HCT-15_SM2, four-parameter fit): -16.7%
HillSlope (HCT-15_SM2, four-parameter fit): -0.6998
LogEC50 (HCT-15_SM2): -6.787
DC50 (HCT-15_SM2, protein degradation, four-parameter fit, read-out: EC50 (the source's name)): 163 nM
Bottom (best-fit value, % protein remaining) (LU99_SM2, four-parameter fit): 4.814%
HillSlope (LU99_SM2, four-parameter fit): -1.159
LogEC50 (LU99_SM2): -8.209
DC50 (LU99_SM2, protein degradation, four-parameter fit, read-out: EC50 (the source's name)): 6.18 nM
Dmax (NCI-H1568 (4 h), mean ± SD): 86 ± 6%
DC50 (NCI-H1568 (4 h), mean ± SD, read-out: SMARCA2 DC50): 13 ± 14 nM
Bottom (% protein remaining, four-parameter fit) (NCI-H1568, 4h): 6.286%
HillSlope (protein remaining) (NCI-H1568, 4h): -1.738
LogEC50 (protein remaining) (NCI-H1568, 4h): -8.191 log10(mol/l)
Top (% protein remaining, four-parameter fit) (NCI-H1568, 4h): 87.56%
% protein remaining (NCI-H1568, 4h, conc 1.00001e-10 mol/l): 96.6234% and 94.5884%
% protein remaining (NCI-H1568, 4h, conc 1.52416e-10 mol/l): 71.8933%
% protein remaining (NCI-H1568, 4h, conc 3.1623e-10 mol/l): 72.7669% and 75.3978%
% protein remaining (NCI-H1568, 4h, conc 4.57247e-10 mol/l): 96.5512%
% protein remaining (NCI-H1568, 4h, conc 1.00001e-9 mol/l): 90.5385% and 93.373%
% protein remaining (NCI-H1568, 4h, conc 1.37174e-9 mol/l): 95.3256%
% protein remaining (NCI-H1568, 4h, conc 3.1623e-9 mol/l): 36.986%
% protein remaining (NCI-H1568, 4h, conc 4.11523e-9 mol/l): 94.3111%
% protein remaining (NCI-H1568, 4h, conc 1.00001e-8 mol/l): 19.3906% and 27.9502%
% protein remaining (NCI-H1568, 4h, conc 1.23457e-8 mol/l): 37.9279%
% protein remaining (NCI-H1568, 4h, conc 3.1623e-8 mol/l): 8.319% and 13.4554%
% protein remaining (NCI-H1568, 4h, conc 3.7037e-8 mol/l): 11.4262%
% protein remaining (NCI-H1568, 4h, conc 1.11111e-7 mol/l): 8.194%
% protein remaining (NCI-H1568, 4h, conc 3.1623e-7 mol/l): 2.032% and 3.543%
% protein remaining (NCI-H1568, 4h, conc 3.33333e-7 mol/l): 6.383%
% protein remaining (NCI-H1568, 4h, conc 1e-6 mol/l): 9.793%
% protein remaining (NCI-H1568, 4h, conc 1.00001e-6 mol/l): 2.382% and 3.308%
% protein remaining (NCI-H1568, 4h, conc 3.1623e-6 mol/l): 2.029% and 3.947%
DC50 (NCI-H1568, 4h, individual replicates, read-out: NCI-H1568 (4h) SMARCA2 DC50): 4.72 nM and 32.5 nM and 13 nM
DC50 (NCI-H1568, 4h, read-out: EC50 (protein remaining)): 6.44 nM
Bottom (% protein remaining, four-parameter fit) (NCI-H1568, 8h): 6.315%
HillSlope (protein remaining) (NCI-H1568, 8h): -1.161
LogEC50 (protein remaining) (NCI-H1568, 8h): -8.44 log10(mol/l)
Top (% protein remaining, four-parameter fit) (NCI-H1568, 8h): 119.8%
% protein remaining (NCI-H1568, 8h, conc 4.57247e-10 mol/l): 112.24%
% protein remaining (NCI-H1568, 8h, conc 1.37174e-9 mol/l): 87.7845%
% protein remaining (NCI-H1568, 8h, conc 4.11523e-9 mol/l): 63.6536%
% protein remaining (NCI-H1568, 8h, conc 1.23457e-8 mol/l): 24.8248%
% protein remaining (NCI-H1568, 8h, conc 3.7037e-8 mol/l): 13.998%
% protein remaining (NCI-H1568, 8h, conc 1.11111e-7 mol/l): 8.2%
% protein remaining (NCI-H1568, 8h, conc 3.33333e-7 mol/l): 6.313%
% protein remaining (NCI-H1568, 8h, conc 1e-6 mol/l): 7.6382%
% protein remaining (NCI-H1568, 8h, conc 3e-6 mol/l): 6.726%
DC50 (NCI-H1568, 8h, read-out: EC50 (protein remaining)): 3.63 nM
Bottom (% protein remaining, four-parameter fit) (NCI-H1568, 18h): 2.272%
HillSlope (protein remaining) (NCI-H1568, 18h): -0.7655
LogEC50 (protein remaining) (NCI-H1568, 18h): -9.556 log10(mol/l)
Top (% protein remaining, four-parameter fit) (NCI-H1568, 18h): 215.6%
% protein remaining (NCI-H1568, 18h, conc 1.52416e-10 mol/l): 134.073%
% protein remaining (NCI-H1568, 18h, conc 4.57247e-10 mol/l): 84.9656%
% protein remaining (NCI-H1568, 18h, conc 1.37174e-9 mol/l): 57.0296%
% protein remaining (NCI-H1568, 18h, conc 4.11523e-9 mol/l): 23.442%
% protein remaining (NCI-H1568, 18h, conc 1.23457e-8 mol/l): 12.5025%
% protein remaining (NCI-H1568, 18h, conc 3.7037e-8 mol/l): 5.834%
% protein remaining (NCI-H1568, 18h, conc 1.11111e-7 mol/l): 3.6967%
% protein remaining (NCI-H1568, 18h, conc 3.33333e-7 mol/l): 2.8858%
% protein remaining (NCI-H1568, 18h, conc 1e-6 mol/l): 3.302%
% protein remaining (NCI-H1568, 18h, conc 3e-6 mol/l): 4.787%
DC50 (NCI-H1568, 18h, read-out: EC50 (protein remaining)): 0.278 nM
Bottom (best-fit value, % protein remaining) [1]: 20.4%
HillSlope [1]: -1.475
LogEC50 (SK-N-AS_SM2): -7.468
DC50 (SK-N-AS_SM2, protein degradation, four-parameter fit, read-out: EC50 (the source's name)): 34 nM
